Results as given in PMC6298744 (Biochemical pharmacology, 2018).

Each molecule was assayed against T1, 5-HT2A receptor (Homo sapiens, UniProt P28223) (assay: cell-based). Conditions: EC50, 5-HT2A stimulation of IP-1 formation, mean ± sem.
Type: cell-based

T1 sequence (P28223 whole entry): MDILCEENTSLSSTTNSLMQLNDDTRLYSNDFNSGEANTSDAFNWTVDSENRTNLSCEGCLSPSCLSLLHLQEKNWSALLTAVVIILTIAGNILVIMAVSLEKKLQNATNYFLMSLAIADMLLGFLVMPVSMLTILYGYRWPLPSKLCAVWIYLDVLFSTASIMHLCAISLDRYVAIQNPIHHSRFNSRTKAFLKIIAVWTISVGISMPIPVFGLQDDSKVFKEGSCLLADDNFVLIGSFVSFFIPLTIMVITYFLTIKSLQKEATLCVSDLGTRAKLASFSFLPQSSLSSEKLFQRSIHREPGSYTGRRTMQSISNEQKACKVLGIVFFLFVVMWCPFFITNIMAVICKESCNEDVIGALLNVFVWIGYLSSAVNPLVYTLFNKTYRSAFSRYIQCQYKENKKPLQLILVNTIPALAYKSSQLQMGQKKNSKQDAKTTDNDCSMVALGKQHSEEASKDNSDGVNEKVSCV

Structure (SMILES)	EC50 [nM]
CCc1cc(OC)c(CCNCc2ccccc2OC)cc1OC [25E-NBOMe, 2-(4-ethyl-2,5-dimethoxyphenyl)-N-(2-methoxybenzyl)ethanamine]	0.5 ± 0.14

Same assay, conditions: ratio of EC50 values

Structure (SMILES)	Selectivity (functional ratios) 5-HT2A: 5-HT1A	Selectivity (functional ratios) 5-HT2A: 5-HT2B	Selectivity (functional ratios) 5-HT2A: 5-HT2C
CCc1cc(OC)c(CCNCc2ccccc2OC)cc1OC [25E-NBOMe, 2-(4-ethyl-2,5-dimethoxyphenyl)-N-(2-methoxybenzyl)ethanamine]	27,000	47	1.9

Same assay, conditions: read-out: % maximum stimulation, 5-HT2A stimulation of IP-1 formation

Structure (SMILES)	Emax [%]
CCc1cc(OC)c(CCNCc2ccccc2OC)cc1OC [25E-NBOMe, 2-(4-ethyl-2,5-dimethoxyphenyl)-N-(2-methoxybenzyl)ethanamine]	87.1

Each molecule was assayed against T2, hDAT (Homo sapiens, UniProt Q01959) (assay: Inhibition of [^3H]DA uptake by HEK-hDAT cells). Conditions: not given.
Type: cell-based

T2 sequence (Q01959 whole entry): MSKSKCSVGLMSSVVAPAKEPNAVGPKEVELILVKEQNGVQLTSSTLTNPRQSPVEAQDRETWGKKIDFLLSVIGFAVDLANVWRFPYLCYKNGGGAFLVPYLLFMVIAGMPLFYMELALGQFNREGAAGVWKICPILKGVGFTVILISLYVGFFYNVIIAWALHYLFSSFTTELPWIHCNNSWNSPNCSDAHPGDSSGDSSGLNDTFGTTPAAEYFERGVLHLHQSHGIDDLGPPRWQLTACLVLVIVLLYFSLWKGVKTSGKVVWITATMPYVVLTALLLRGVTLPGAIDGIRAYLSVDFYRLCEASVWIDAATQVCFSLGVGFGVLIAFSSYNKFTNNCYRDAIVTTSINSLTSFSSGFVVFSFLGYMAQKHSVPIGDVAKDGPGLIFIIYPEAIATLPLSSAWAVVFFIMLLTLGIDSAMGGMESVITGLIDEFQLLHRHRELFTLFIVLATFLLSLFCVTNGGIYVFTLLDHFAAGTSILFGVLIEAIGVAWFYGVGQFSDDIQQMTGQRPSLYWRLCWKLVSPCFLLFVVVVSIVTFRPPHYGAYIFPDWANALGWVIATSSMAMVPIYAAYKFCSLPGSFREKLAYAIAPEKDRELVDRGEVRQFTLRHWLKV

Structure (SMILES)	IC50 [nM]
CCc1cc(OC)c(CCNCc2ccccc2OC)cc1OC [25E-NBOMe, 2-(4-ethyl-2,5-dimethoxyphenyl)-N-(2-methoxybenzyl)ethanamine]	34000 ± 10000

The molecules below were run against T3, hNET (Homo sapiens, UniProt P23975) (assay: Release of preloaded [^3H]NE from HEK-hNET cells). Conditions: not given.
Type: cell-based

T3 sequence (P23975 whole entry): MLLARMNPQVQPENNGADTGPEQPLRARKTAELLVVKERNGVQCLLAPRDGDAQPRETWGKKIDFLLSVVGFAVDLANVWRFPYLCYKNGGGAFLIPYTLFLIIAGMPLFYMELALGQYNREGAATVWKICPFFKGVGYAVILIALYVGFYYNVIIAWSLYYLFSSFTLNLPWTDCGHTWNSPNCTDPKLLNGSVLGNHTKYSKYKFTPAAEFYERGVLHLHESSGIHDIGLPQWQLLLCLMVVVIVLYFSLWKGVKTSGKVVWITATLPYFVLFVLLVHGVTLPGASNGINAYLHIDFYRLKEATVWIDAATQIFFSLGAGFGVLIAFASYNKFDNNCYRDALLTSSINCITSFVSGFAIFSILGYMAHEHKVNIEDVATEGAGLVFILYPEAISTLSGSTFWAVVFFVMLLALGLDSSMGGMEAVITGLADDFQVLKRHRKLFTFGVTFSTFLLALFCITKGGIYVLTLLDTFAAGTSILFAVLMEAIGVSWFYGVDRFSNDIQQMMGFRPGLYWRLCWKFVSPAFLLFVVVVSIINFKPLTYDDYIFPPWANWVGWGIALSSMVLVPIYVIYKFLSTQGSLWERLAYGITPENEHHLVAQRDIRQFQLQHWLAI

Structure (SMILES)	EC50 [nM]
CCc1cc(OC)c(CCNCc2ccccc2OC)cc1OC [25E-NBOMe, 2-(4-ethyl-2,5-dimethoxyphenyl)-N-(2-methoxybenzyl)ethanamine]	> 66000

Same assay, conditions: relative to maximum release induced by METH (0.3–1 μM)

Structure (SMILES)	% maximum release, hNET [^3H]NE [%]
CCc1cc(OC)c(CCNCc2ccccc2OC)cc1OC [25E-NBOMe, 2-(4-ethyl-2,5-dimethoxyphenyl)-N-(2-methoxybenzyl)ethanamine]	17.1 ± 5.9

Each molecule was assayed against T2, hDAT (assay: Inhibition of [^125I]RTI-55 binding to hDAT). Conditions: not given.

Structure (SMILES)	Ki [nM]
CCc1cc(OC)c(CCNCc2ccccc2OC)cc1OC [25E-NBOMe, 2-(4-ethyl-2,5-dimethoxyphenyl)-N-(2-methoxybenzyl)ethanamine]	19600 ± 1200

The molecules below were run against T4, 5-HT2B receptor (Homo sapiens, UniProt P41595) (assay: 5-HT2B receptor [^3H]5-HT binding). Conditions: not given.
T4 sequence (P41595 whole entry): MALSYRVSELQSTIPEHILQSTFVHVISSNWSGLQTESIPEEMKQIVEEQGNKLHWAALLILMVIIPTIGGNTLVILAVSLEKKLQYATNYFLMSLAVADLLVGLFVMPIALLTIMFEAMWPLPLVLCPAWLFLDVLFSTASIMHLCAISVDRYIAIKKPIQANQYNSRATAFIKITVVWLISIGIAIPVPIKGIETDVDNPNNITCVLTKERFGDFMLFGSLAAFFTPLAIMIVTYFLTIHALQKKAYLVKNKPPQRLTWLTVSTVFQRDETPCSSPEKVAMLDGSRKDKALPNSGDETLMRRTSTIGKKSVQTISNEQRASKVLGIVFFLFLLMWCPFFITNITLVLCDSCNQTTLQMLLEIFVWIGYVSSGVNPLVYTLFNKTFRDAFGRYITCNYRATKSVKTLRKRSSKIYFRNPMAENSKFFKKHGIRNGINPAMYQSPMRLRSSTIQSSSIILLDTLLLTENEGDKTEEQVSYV

Structure (SMILES)	Ki [nM]
CCc1cc(OC)c(CCNCc2ccccc2OC)cc1OC [25E-NBOMe, 2-(4-ethyl-2,5-dimethoxyphenyl)-N-(2-methoxybenzyl)ethanamine]	1.11 ± 0.32

What follows are molecules tested against T3, hNET (assay: biochemical). Conditions: not given.
Type: binding

Structure (SMILES)	Ki [nM]
CCc1cc(OC)c(CCNCc2ccccc2OC)cc1OC [25E-NBOMe, 2-(4-ethyl-2,5-dimethoxyphenyl)-N-(2-methoxybenzyl)ethanamine]	5400 ± 1000

What follows are molecules tested against T4, 5-HT2B receptor (assay: 5-HT2B receptor inositol monophosphate). Conditions: not given.
Type: cell-based

Structure (SMILES)	EC50 [nM]
CCc1cc(OC)c(CCNCc2ccccc2OC)cc1OC [25E-NBOMe, 2-(4-ethyl-2,5-dimethoxyphenyl)-N-(2-methoxybenzyl)ethanamine]	23.5 ± 6

Same assay, conditions: read-out: % maximum stimulation, 5-HT2B stimulation of IP-1 formation

Structure (SMILES)	Emax [%]
CCc1cc(OC)c(CCNCc2ccccc2OC)cc1OC [25E-NBOMe, 2-(4-ethyl-2,5-dimethoxyphenyl)-N-(2-methoxybenzyl)ethanamine]	49.4

What follows are molecules tested against T5, human 5-HT1A receptor (Homo sapiens, UniProt P08908) (assay: 5-HT1A receptor [^3H]8-OH-DPAT radioligand binding). Conditions: not given.
T5 sequence (P08908 1-422): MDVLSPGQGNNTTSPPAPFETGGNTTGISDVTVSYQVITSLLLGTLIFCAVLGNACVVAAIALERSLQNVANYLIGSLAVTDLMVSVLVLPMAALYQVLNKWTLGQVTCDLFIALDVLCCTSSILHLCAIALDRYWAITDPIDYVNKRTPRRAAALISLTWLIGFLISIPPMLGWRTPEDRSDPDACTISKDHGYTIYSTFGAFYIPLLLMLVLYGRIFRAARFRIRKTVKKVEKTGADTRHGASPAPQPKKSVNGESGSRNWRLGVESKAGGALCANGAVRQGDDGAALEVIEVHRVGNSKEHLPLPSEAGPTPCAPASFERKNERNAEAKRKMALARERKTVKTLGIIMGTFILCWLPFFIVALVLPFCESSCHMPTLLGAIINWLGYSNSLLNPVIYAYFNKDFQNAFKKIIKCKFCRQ

Structure (SMILES)	Ki [nM]
CCc1cc(OC)c(CCNCc2ccccc2OC)cc1OC [25E-NBOMe, 2-(4-ethyl-2,5-dimethoxyphenyl)-N-(2-methoxybenzyl)ethanamine]	1680 ± 350

These molecules were tested against T3, hNET (assay: cell-based). Conditions: not given.

Structure (SMILES)	IC50 [nM]
CCc1cc(OC)c(CCNCc2ccccc2OC)cc1OC [25E-NBOMe, 2-(4-ethyl-2,5-dimethoxyphenyl)-N-(2-methoxybenzyl)ethanamine]	2310 ± 700

The molecules below were run against T6, hSERT (Homo sapiens, UniProt P31645) (assay: Inhibition of [^3H]5-HT uptake by HEK-hSERT cells). Conditions: not given.
Type: cell-based

T6 sequence (P31645 whole entry): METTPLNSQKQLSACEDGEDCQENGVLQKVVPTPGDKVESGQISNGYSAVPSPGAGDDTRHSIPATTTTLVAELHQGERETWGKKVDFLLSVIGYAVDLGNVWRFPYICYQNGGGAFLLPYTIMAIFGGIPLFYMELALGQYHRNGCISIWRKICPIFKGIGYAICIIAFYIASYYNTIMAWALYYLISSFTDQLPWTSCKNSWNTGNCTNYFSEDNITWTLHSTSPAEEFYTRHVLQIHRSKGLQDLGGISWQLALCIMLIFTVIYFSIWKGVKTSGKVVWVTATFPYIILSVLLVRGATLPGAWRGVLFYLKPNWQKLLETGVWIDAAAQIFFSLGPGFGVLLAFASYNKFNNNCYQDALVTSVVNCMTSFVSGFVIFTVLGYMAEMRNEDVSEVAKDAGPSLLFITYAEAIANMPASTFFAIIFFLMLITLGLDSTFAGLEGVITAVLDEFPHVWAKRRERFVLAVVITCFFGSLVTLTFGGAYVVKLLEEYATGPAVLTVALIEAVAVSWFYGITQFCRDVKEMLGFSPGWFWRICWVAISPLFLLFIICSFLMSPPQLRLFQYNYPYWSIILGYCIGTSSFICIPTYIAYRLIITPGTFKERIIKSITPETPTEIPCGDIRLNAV

Structure (SMILES)	IC50 [nM]
CCc1cc(OC)c(CCNCc2ccccc2OC)cc1OC [25E-NBOMe, 2-(4-ethyl-2,5-dimethoxyphenyl)-N-(2-methoxybenzyl)ethanamine]	1440 ± 140

The molecules below were run against T5, human 5-HT1A receptor (assay: 5-HT1A receptor [^35S]GTPγS binding stimulation). Conditions: not given.
Type: biochemical

Structure (SMILES)	EC50 [nM]
CCc1cc(OC)c(CCNCc2ccccc2OC)cc1OC [25E-NBOMe, 2-(4-ethyl-2,5-dimethoxyphenyl)-N-(2-methoxybenzyl)ethanamine]	13700 ± 5600

Same assay, conditions: read-out: % maximum stimulation, 5-HT1A stimulation of [^35S]GTPγS binding

Structure (SMILES)	Emax [%]
CCc1cc(OC)c(CCNCc2ccccc2OC)cc1OC [25E-NBOMe, 2-(4-ethyl-2,5-dimethoxyphenyl)-N-(2-methoxybenzyl)ethanamine]	38

What follows are molecules tested against T2, hDAT (assay: Release of preloaded [^3H]DA from HEK-hDAT cells). Conditions: not given.
Type: cell-based

Structure (SMILES)	EC50 [nM]
CCc1cc(OC)c(CCNCc2ccccc2OC)cc1OC [25E-NBOMe, 2-(4-ethyl-2,5-dimethoxyphenyl)-N-(2-methoxybenzyl)ethanamine]	> 85000

Same assay, conditions: relative to maximum release induced by METH (1–10 μM)

Structure (SMILES)	% maximum release, hDAT [^3H]DA [%]
CCc1cc(OC)c(CCNCc2ccccc2OC)cc1OC [25E-NBOMe, 2-(4-ethyl-2,5-dimethoxyphenyl)-N-(2-methoxybenzyl)ethanamine]	5.8 ± 6.4

The molecules below were run against T7, 5-HT2C receptor (Homo sapiens, UniProt P28335) (assay: cell-based). Conditions: not given.
T7 sequence (P28335 33-458): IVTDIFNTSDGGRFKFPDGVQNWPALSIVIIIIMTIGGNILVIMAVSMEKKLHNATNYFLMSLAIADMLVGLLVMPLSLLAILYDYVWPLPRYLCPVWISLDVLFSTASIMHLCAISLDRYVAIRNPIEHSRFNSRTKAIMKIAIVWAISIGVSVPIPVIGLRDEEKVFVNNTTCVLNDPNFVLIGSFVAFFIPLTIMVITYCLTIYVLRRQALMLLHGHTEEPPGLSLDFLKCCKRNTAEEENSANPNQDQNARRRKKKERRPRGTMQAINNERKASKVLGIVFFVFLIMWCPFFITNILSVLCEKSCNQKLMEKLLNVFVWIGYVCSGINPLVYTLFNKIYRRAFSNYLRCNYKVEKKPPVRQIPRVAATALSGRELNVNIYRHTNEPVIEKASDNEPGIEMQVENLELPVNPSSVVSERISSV

Structure (SMILES)	EC50 [nM]
CCc1cc(OC)c(CCNCc2ccccc2OC)cc1OC [25E-NBOMe, 2-(4-ethyl-2,5-dimethoxyphenyl)-N-(2-methoxybenzyl)ethanamine]	0.95 ± 0.18

Same assay, conditions: read-out: % maximum stimulation, 5-HT2C stimulation of IP-1 formation

Structure (SMILES)	Emax [%]
CCc1cc(OC)c(CCNCc2ccccc2OC)cc1OC [25E-NBOMe, 2-(4-ethyl-2,5-dimethoxyphenyl)-N-(2-methoxybenzyl)ethanamine]	91.8

Each molecule was assayed against T6, hSERT (assay: Release of preloaded [^3H]5-HT from HEK-hSERT cells). Conditions: not given.
Type: cell-based

Structure (SMILES)	EC50 [nM]
CCc1cc(OC)c(CCNCc2ccccc2OC)cc1OC [25E-NBOMe, 2-(4-ethyl-2,5-dimethoxyphenyl)-N-(2-methoxybenzyl)ethanamine]	> 100000

Same assay, conditions: relative to maximum release induced by METH (0.3–1 mM)

Structure (SMILES)	% maximum release, hSERT [^3H]5-HT [%]
CCc1cc(OC)c(CCNCc2ccccc2OC)cc1OC [25E-NBOMe, 2-(4-ethyl-2,5-dimethoxyphenyl)-N-(2-methoxybenzyl)ethanamine]	0.21 ± 0.77

The molecules below were run against T1, 5-HT2A receptor (assay: biochemical). Conditions: not given.
Type: binding

Structure (SMILES)	Ki [nM]
CCc1cc(OC)c(CCNCc2ccccc2OC)cc1OC [25E-NBOMe, 2-(4-ethyl-2,5-dimethoxyphenyl)-N-(2-methoxybenzyl)ethanamine]	0.127 ± 0.019

Same assay, conditions: ratio of Ki values

Structure (SMILES)	Selectivity (binding ratios) 5-HT2A : 5-HT1A	Selectivity (binding ratios) 5-HT2A : 5-HT2B	Selectivity (binding ratios) 5-HT2A : 5-HT2C
CCc1cc(OC)c(CCNCc2ccccc2OC)cc1OC [25E-NBOMe, 2-(4-ethyl-2,5-dimethoxyphenyl)-N-(2-methoxybenzyl)ethanamine]	13200	8.7	2.4

What follows are molecules tested against T6, hSERT (assay: Inhibition of [^125I]RTI-55 binding to hSERT). Conditions: not given.

Structure (SMILES)	Ki [nM]
CCc1cc(OC)c(CCNCc2ccccc2OC)cc1OC [25E-NBOMe, 2-(4-ethyl-2,5-dimethoxyphenyl)-N-(2-methoxybenzyl)ethanamine]	1590 ± 120
